Test results as given in the NIST ThermoML archive (doi:10.1016/j.jct.2015.06.017).

Details: Liquid, Closed cell (Static) method

C=CC [propene]
Details | vapor or sublimation pressure [kPa]
282.97 K | 769
287.57 K | 873
293.48 K | 1028
298.02 K | 1152
302.83 K | 1291
307.67 K | 1458
314.06 K | 1691
318.36 K | 1854
322.91 K | 2039
327.27 K | 2239
